One data set relates to PCSK9. Kind of data set: PCSK9 ELISA of HepG2 culture medium. It counts as cell-based. The conditions noted are these: 24 hr. The method, then: (§1) HepG2 cells (ATCC, Cat.:HB-8065) were maintained in Growth medium—Eagle's Minimum Essential Medium (Corning, 10-010-CVR), 10% FBS (Gibco, 10099-141), Penicillin (100 units/mL), Streptomycin (100 μg/mL). HepG2 cells were incubated at 37° C., 5% CO2. HepG2 cells were plated in flat bottom 96-well plates (Corning, 3599) at 40,000 cells/well in 100 μL of growth media. After an overnight incubation, the culture media were changed to serum-free OptiMEM media(Gibco, 31985-062), 90 μL/well. Vehicle, PF-06446846 hydrochloride, berberine, or test compound was added to the culture media, 10 μL/well. After 24 hr medium was harvested, and 10 μL of the medium were used for the PCSK9 ELISA(R&D Systems, SPC900).

For a further data set, the system named is PCSK9 mRNA. Kind of data set: RT-Q-PCR analysis of PCSK9 mRNA in HepG2 cells. Type of data set: cell-based. Conditions: Homo sapiens, 24 h, normalized to GAPDH, read-out: HepG2 Q-PCR PCSK9 mRNA level decrease (10 μM). As for the experimental part:
HepG2 cells (ATCC, Cat.:HB-8065) were maintained in Growth medium—Eagle's Minimum Essential Medium (Corning, 10-010-CVR), 10% FBS (Gibco, 10099-141), Penicillin (100 units/mL), Streptomycin (100 μg/mL). HepG2 cells were incubated at 37° C., 5% CO2.
Cells were cultured in growth medium as described above and treated with the vehicle, Berberine or test compound for 24 h. The RNA was extracted using the Total RNA mini Kit (Tiangen, Beijing, China) according to the manufacturer's instructions. Reverse transcription was carried out using the High-Capacity cDNA reverse transcription kit (Thermo Fisher Scientific). Quantitative real-time PCR was performed using a reaction mixture containing cDNA, specific primers [PCSK9, 5′-[…]-3′ (forward) and 5′-[…]-3′ (reverse); GAPDH, 5′-[…]-3′ (forward) and 5′-[…]-3′ (reverse)] and Maxima SYBR Green/ROX qPCR Master Mix(Thermo Fisher Scientific). PCR amplification was carried out in a Real-Time PCR System. The real-time PCR conditions were 37° C. 10 min; 95° C. 10 min; 95° C. 15 s, 60° C. 30 s, 72° C. 30 s, 40 cycle. The amount of mRNA was normalized to the GAPDH level in the same samples.

Data set [1] can be described thus: Metabolic stability in rat liver microsomes. Type of data set: in vitro ADME. Conditions: rat liver microsomes 0.5 mg/mL, 37° C., read-out: Metabolic stability T1/2 (minute) Rat. The method, then: (§2) Metabolic Stability of Test Compounds in Incubation with Human, and Rat Liver Microsomes Study Details: • Test concentration: 1 μM; • Reference compound: Ketanserin; • Test systems: human, and rat liver microsomes (from Corning or Xenotech) with final liver microsomal protein concentration of 0.5 mg/mL; • Incubation condition: 0, 5, 15, 30, and 45 min at 37° C.; • Sample size: Duplicates (n=2); • Bioanalytical method: LC-MS/MS;
(§3) [formula] [formula] [formula] • where QH is the hepatic blood flow (mL/min/kg), fub is the fraction of unbound drug in plasma which is assumed to be 1, Clint is the in vitro intrinsic clearance.

Data set [2] can be described thus: Metabolic stability in human liver microsomes. It counts as in vitro ADME. The conditions noted are these: human liver microsomes 0.5 mg/mL, 37° C., read-out: Metabolic stability T1/2 (minute) Human. The method, then:
as §2, §3
Background: Liver microsomes are a subcellular fraction often used to study metabolism.

The test system of the next data set is HepG2 cells. Kind of data set: HepG2 cell viability assay (CellTiter-Glo, cellular ATP). The conditions noted are these: 24 hr, serum-free OptiMEM. Type of data set: cell-based. The method, then:
as §1, with “black clear” for “flat”, “3063)” for “3599)”, “media (Gibco,” for “media(Gibco,”, “cellular ATP levels” for “medium was harvested, and 10 μL of the medium”, “measured using CellTiter-Glo® 2.0 Assay (Promega, G9242).” for “used for the PCSK9 ELISA(R&D Systems, SPC900).”

Regarding `CC(C)c1ccc(Oc2ccc(NC(=O)CN(CC(=O)NC3CC3)C(=O)c3cc4cccc(F)c4[nH]3)cc2)cc1` [Compound 201-312], in the data set with PCSK9, the “HepG2 PCSK9 ELISA (10 μM) % inhibition” value was determined as 89%. The inhibition at 10 µM in the data set on PCSK9 mRNA is 50%. Moreover, the half-life at 1 μM was determined as 29.6 min in data set [1] and 52.8 min in data set [2]. Moreover, the “HepG2 Survival assay (10 μM)” value in the data set on HepG2 cells came out at 102.7%.
For `CC(C)NC(=O)CN(CC(=O)Nc1ccc(Oc2ccc(F)c(F)c2)cc1)C(=O)c1cc2cccc(F)c2[nH]1` [Compound 201-277] the same measures were 100%, 86%, 45.4 min, 40.2 min and 90%.
In the same order, the values of `CC(C)NC(=O)CN(CC(=O)Nc1ccc(Oc2ccc(C(F)F)cc2)cc1)C(=O)c1cc2cccc(C#N)c2[nH]1` [Compound 201-329] are 91%, 73%, 17.5 min, 14.3 min and 106%.
For `CC(C)NC(=O)CN(CC(=O)Nc1ccc(Oc2cc(F)c(F)c(F)c2)cc1)C(=O)c1cc2cccc(C#N)c2[nH]1` [Compound 201-332] the same measures were 89%, 85%, 38.7 min, 22.4 min and 99%.
Regarding `CC(C)NC(=O)CN(CC(=O)Nc1ccc(Oc2ccc(C(F)(F)F)cc2)cc1)C(=O)c1cc2cccc(F)c2[nH]1` [Compound 201-275], the “HepG2 PCSK9 ELISA (10 μM) % inhibition” value in the data set on PCSK9 stood at 80%. Moreover, the inhibition at 10 µM in the data set on PCSK9 mRNA came out at 75%. The half-life at 1 μM in data set [1] turned out to be 341 min; in data set [2] it was 57.2 min. Also, the “HepG2 Survival assay (10 μM)” value with HepG2 cells is given as 92%.
Turning to `CCc1ccc(Oc2ccc(NC(=O)CN(CC(=O)NC(C)C)C(=O)c3cc4cccc(F)c4[nH]3)cc2)cc1` [Compound 201-276], the “HepG2 PCSK9 ELISA (10 μM) % inhibition” value with PCSK9 is 94%. Moreover, the inhibition at 10 µM in the data set with PCSK9 mRNA was 54%. For the same molecule, the half-life at 1 μM in data set [1] was 42.4 min; in data set [2] it was 46.7 min. In the data set with HepG2 cells, the “HepG2 Survival assay (10 μM)” value turned out to be 99%.
For `O=C(CN(CC(=O)NC1CC1)C(=O)c1cc2cccc(F)c2[nH]1)Nc1ccc(Oc2ccc(C(F)(F)F)cc2)cc1` [Compound 201-287] the same measures were 99%, 56%, 138 min, 100 min and 96%.
For `CC(C)c1ccc(Oc2ccc(NC(=O)CN(CC(=O)NC3CC3)C(=O)c3ccc(C(F)(F)F)[nH]3)cc2)cc1` [Compound 201-320] the same measures were 93%, 80%, 20.8 min, 93 min and 87.3%.
In the same order, the values of `CC(C)NC(=O)CN(CC(=O)Nc1ccc(Oc2ccc(C(F)(F)F)cc2)cc1)C(=O)c1cc2cccc(C#N)c2[nH]1` [Compound 201-284] are 94%, 90%, 66 min, 64 min and 101%.
In the case of `CC(C)NC(=O)CN(CC(=O)Nc1ccc(Oc2cc(F)c(F)c(F)c2)cc1)C(=O)c1cc2cccc(F)c2[nH]1` [Compound 201-331], the “HepG2 PCSK9 ELISA (10 μM) % inhibition” value with PCSK9 is given as 87%. Moreover, the inhibition at 10 µM in the data set on PCSK9 mRNA is 92%. The figures for the half-life at 1 μM in data set [1] and in data set [2] were 41 min and 20.6 min, respectively. For the same molecule, the “HepG2 Survival assay (10 μM)” value in the data set on HepG2 cells came to 103%.
For `CC(C)NC(=O)CN(CC(=O)Nc1ccc(Oc2ccc(F)c(F)c2)cc1)C(=O)c1ccc(C(F)(F)F)[nH]1` [Compound 201-283] the same measures were 100%, 77%, 49.6 min, 77.8 min and 97%.

(Values after patent US20250026719A1, “NOVEL COMPOUNDS AS INHIBITORS OF PCSK9” (SHENGKE PHARMACEUTICALS (JIANGSU) LTD., priority 2021, published 2025).)
